# Test: Metabolic stability in human liver microsomes;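 note: NADPH-supplemented incubation in 100 mM potassium phosphate buffer, compound loss sampled at 0, 5, 10, 20, 30 and 60 min by LC-MS/MS, first-order kinetics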
# Assay type: in vitro ADME
# Conditions: LM Clint; human liver microsomes 0.5 mg protein/mL, test compound 1 μM, 37° C., up to 60 min
row,Human Liver Microsome (μM/min/mg),Structure (SMILES)
1,+++ (1-10 μM/min/mg as +++),"CC(C)n1cnc(-c2ccc(F)cc2)c1-c1nc(C(=O)Nc2ccc(CCCCC(=O)O)cc2)c[nH]1 [Compound 132, 5-(4-(5′-(4-fluorophenyl)-3′-isopropyl-1H,3′H-[2,4′-biimidazole]-4-carboxamido)phenyl)pentanoic acid]"
2,+ (>100 μM/min/mg as),"CN1CCN(c2ccc(NC(=O)c3c[nH]c(-c4c(-c5ccc(F)cc5)ncn4CC(C)(C)C)n3)cc2)CC1 [Compound 135, 5′-(4-fluorophenyl)-N-(4-(4-methylpiperazin-1-yl)phenyl)-3′-neopentyl-1H,3′H-[2,4′-biimidazole]-4-carboxamide]"
3,+++ (1-10 μM/min/mg as +++),"C[N+]1([O-])CCN(c2ccc(NC(=O)c3c[nH]c(-c4c(-c5ccc(F)cc5)ncn4CC(F)(F)F)n3)cc2)CC1 [Compound 166, 4-(4-(5′-(4-fluorophenyl)-3′-(2,2,2-trifluoroethyl)-1H,3′H-[2,4′-biimidazole]-4-carboxamido)phenyl)-1-methylpiperazine 1-oxide]"
4,+++ (1-10 μM/min/mg as +++),CN1CCN(c2ccc(NC(=O)c3c[nH]c(-c4c(-c5ccc(F)cc5)ncn4C4CCC(O)CC4)n3)cc2)CC1 (stereo not shown) [Compound 172]
5,+++ (1-10 μM/min/mg as +++),"CC(C)n1cnc(-c2ccc(Cl)cc2)c1-c1nc(C(=O)Nc2ccc(CCC(=O)O)cc2)c[nH]1 [Compound 137, 3-(4-(5′-(4-chlorophenyl)-3′-isopropyl-1H,3′H-[2,4′-biimidazole]-4-carboxamido)phenyl)propanoic acid]"
6,+ (>100 μM/min/mg as),"CC(C)n1cnc(-c2ccc(C(F)(F)F)cc2)c1-c1nc(C(=O)Nc2ccc(N3CCN(C)CC3)cc2)c[nH]1 [Compound 142, 3′-isopropyl-N-(4-(4-methylpiperazin-1-yl)phenyl)-5′-(4-(trifluoromethyl)phenyl)-1H,3′H-[2,4′-biimidazole]-4-carboxamide]"
7,++ (10-100 μM/min/mg as ++),"CN1CCN(c2ccc(NC(=O)c3c[nH]c(-c4c(-c5ccc(F)cc5)ncn4C(F)F)n3)cc2)CC1 [Compound 130, 3′-(difluoromethyl)-5′-(4-fluorophenyl)-N-(4-(4-methylpiperazin-1-yl)phenyl)-1H,3′H-[2,4′-biimidazole]-4-carboxamide]"
8,+++ (1-10 μM/min/mg as +++),"O=C(Nc1ccc(N2CCN(CCO)CC2)cc1)c1c[nH]c(-c2c(-c3ccc(F)cc3)ncn2[C@H]2CC[C@H](O)CC2)n1 [Compound 158, 5′-(4-fluorophenyl)-3′-((1r,4r)-4-hydroxycyclohexyl)-N-(4-(4-(2-hydroxyethyl)piperazin-1-yl)phenyl)-1H,3′H-[2,4′-biimidazole]-4-carboxamide]"
9,+ (>100 μM/min/mg as),CC(C)n1cnc(-c2ccc(F)cc2)c1-c1cccc(C(=O)Nc2ccc(N3CCN(CCO)CC3)cc2)n1 [Compound 128]
10,++ (10-100 μM/min/mg as ++),"CC(C)n1cnc(-c2ccc(F)c(F)c2)c1-c1nc(C(=O)Nc2ccc(N3CCN(C)CC3)cc2)c[nH]1 [Compound 156, 5′-(3,4-difluorophenyl)-3′-isopropyl-N-(4-(4-methylpiperazin-1-yl)phenyl)-1H,3′H-[2,4′-biimidazole]-4-carboxamide]"
11,++ (10-100 μM/min/mg as ++),"CC(C)n1cnc(-c2ccc(F)c(F)c2)c1-c1nc(C(=O)Nc2ccc(N3CCN(CCO)CC3)cc2)c[nH]1 [Compound 146, 5′-(3,4-difluorophenyl)-N-(4-(4-(2-hydroxyethyl)piperazin-1-yl)phenyl)-3′-isopropyl-1H,3′H-[2,4′-biimidazole]-4-carboxamide]"
12,++ (10-100 μM/min/mg as ++),"CN1CCN(c2ccc(NC(=O)c3c[nH]c(-c4c(-c5ccc(F)cc5)ncn4[C@H]4CC[C@H](O)CC4)n3)cc2)CC1 [Compound 159, 5′-(4-fluorophenyl)-3′-((1r,4r)-4-hydroxycyclohexyl)-N-(4-(4-methylpiperazin-1-yl)phenyl)-1H,3′H-[2,4′-biimidazole]-4-carboxamide]"
13,+++ (1-10 μM/min/mg as +++),CC(C)n1cnc(-c2ccc(F)cc2)c1-c1cccc(C(=O)Nc2ccc(CCC(=O)O)cc2)n1 [Compound 131]
14,++ (10-100 μM/min/mg as ++),"CC(C)n1cnc(-c2ccc(Cl)cc2)c1-c1nc(C(=O)Nc2ccc(N3CCN(CCO)CC3)cc2)c[nH]1 [Compound 139, 5′-(4-chlorophenyl)-N-(4-(4-(2-hydroxyethyl)piperazin-1-yl)phenyl)-3′-isopropyl-1H,3′H-[2,4′-biimidazole]-4-carboxamide]"
15,++ (10-100 μM/min/mg as ++),"CC(C)n1cnc(-c2ccc(F)cc2)c1-c1nc(C(=O)Nc2ccc(N3CCNCC3)cc2)c[nH]1 [Compound 181, 5′-(4-fluorophenyl)-3′-isopropyl-N-(4-(piperazin-1-yl)phenyl)-1H,3′H-[2,4′-biimidazole]-4-carboxamide]"
16,++ (10-100 μM/min/mg as ++),"O=C(Nc1ccc(N2CCNCC2)cc1)c1c[nH]c(-c2c(-c3ccc(F)cc3)ncn2CC(F)(F)F)n1 [Compound 167, 5′-(4-fluorophenyl)-N-(4-(piperazin-1-yl)phenyl)-3′-(2,2,2-trifluoroethyl)-1H,3′H-[2,4′-biimidazole]-4-carboxamide]"

# The remaining lines, values behind:
row,Structure (SMILES),Human Liver Microsome (μM/min/mg)
1,"CC(C)n1cnc(-c2ccc(F)cc2)c1-c1nc(C(=O)Nc2ccc(N3CCN(CCO)CC3)cc2)c[nH]1 [Compound 117, 5′-(4-fluorophenyl)-N-(4-(4-(2-hydroxyethyl)piperazin-1-yl)phenyl)-3′-isopropyl-1H,3′H-[2,4′-biimidazole]-4-carboxamide]",++ (10-100 μM/min/mg as ++)
2,"CC(C)n1cnc(-c2ccc(F)cc2)c1-c1nc(C(=O)Nc2ccc(CCO)cc2)c[nH]1 [Compound 111, 5′-(4-fluorophenyl)-N-(4-(2-hydroxyethyl)phenyl)-3′-isopropyl-1H,3′H-[2,4′-biimidazole]-4-carboxamide]",++ (10-100 μM/min/mg as ++)
3,"CN1CCN(c2ccc(NC(=O)c3c[nH]c(-c4c(-c5ccc(F)cc5)ncn4C)n3)cc2)CC1 [Compound 119, 5′-(4-fluorophenyl)-3′-methyl-N-(4-(4-methylpiperazin-1-yl)phenyl)-1H,3′H-[2,4′-biimidazole]-4-carboxamide]",++ (10-100 μM/min/mg as ++)
4,"CC(C)n1cnc(-c2ccc(F)cc2)c1-c1nc(C(=O)Nc2ccc(N(CCO)CCO)cc2)c[nH]1 [Compound 116, N-(4-(bis(2-hydroxyethyl)amino)phenyl)-5′-(4-fluorophenyl)-3′-isopropyl-1H,3′H-[2,4′-biimidazole]-4-carboxamide]",+++ (1-10 μM/min/mg as +++)
5,"CC(C)n1cnc(-c2ccc(F)cc2)c1-c1ccc(C(=O)Nc2ccc(N3CCN(C)CC3)cc2)o1 [Compound 121, 5-(4-(4-fluorophenyl)-1-isopropyl-1H-imidazol-5-yl)-N-(4-(4-methylpiperazin-1-yl)phenyl)furan-2-carboxamide]",+ (>100 μM/min/mg as)
6,"CC(C)n1cnc(-c2ccc(F)cc2)c1-c1nc(C(=O)Nc2ccc(C(=O)O)cc2)c[nH]1 [Compound 113, 4-(5′-(4-fluorophenyl)-3′-isopropyl-1H,3′H-[2,4′-biimidazole]-4-carboxamido)benzoic acid]",+++ (1-10 μM/min/mg as +++)
7,"CC(C)n1cnc(-c2ccc(F)cc2)c1-c1nc(C(=O)Nc2ccc(CCC(=O)O)cc2)c[nH]1 [Compound 102, 3-(4-(5′-(4-fluorophenyl)-3′-isopropyl-1H,3′H-[2,4′-biimidazole]-4-carboxamido)phenyl)propanoic acid]",+++ (1-10 μM/min/mg as +++)
8,CC(C)n1cnc(-c2ccc(F)cc2)c1-c1cccc(C(=O)Nc2ccc(N3CCN(C)CC3)cc2)n1 [Compound 127],+ (>100 μM/min/mg as)
9,"CC(C)n1cnc(-c2ccc(F)cc2)c1-c1nc(C(=O)Nc2ccc(N3CCN(C(N)=O)CC3)cc2)c[nH]1 [Compound 99, N-(4-(4-carbamoylpiperazin-1-yl)phenyl)-5′-(4-fluorophenyl)-3′-isopropyl-1H,3′H-[2,4′-biimidazole]-4-carboxamide]",++ (10-100 μM/min/mg as ++)
10,"CC(C)n1cnc(-c2ccc(F)cc2)c1-c1nc(C(=O)Nc2ccc(N3CCN(S(N)(=O)=O)CC3)cc2)c[nH]1 [Compound 97, 5′-(4-fluorophenyl)-3′-isopropyl-N-(4-(4-sulfamoylpiperazin-1-yl)phenyl)-1H,3′H-[2,4′-biimidazole]-4-carboxamide]",+ (>100 μM/min/mg as)
11,"CC(C)n1cnc(-c2ccc(F)cc2)c1-c1ccc(C(=O)Nc2ccc(CCO)cc2)o1 [Compound 126, 5-(4-(4-fluorophenyl)-1-isopropyl-1H-imidazol-5-yl)-N-(4-(2-hydroxyethyl)phenyl)furan-2-carboxamide]",+ (>100 μM/min/mg as)
12,"CN1CCN(c2ccc(NC(=O)c3c[nH]c(-c4c(-c5ccc(F)cc5)ncn4CC(F)(F)F)n3)cc2)CC1 [Compound 120, 5′-(4-fluorophenyl)-N-(4-(4-methylpiperazin-1-yl)phenyl)-3′-(2,2,2-trifluoroethyl)-1H,3′H-[2,4′-biimidazole]-4-carboxamide]",++ (10-100 μM/min/mg as ++)

# — patent publication US11530199B2, “Analogs for the treatment of disease” (Insilico Medicine IP Limited, priority 2021, dated 2022)
